# Test results from patent US11844802B2, “Compounds and compositions for ossification and methods related thereto” (Emory University, priority 2010, dated 2023).
# How the values were obtained:
# C2C12 myoblasts = test: BMP-2 responsiveness / osteoblastic transdifferentiation of C2C12 myoblasts, multiple assays; format: cell-based, Mouse
# Description: Derivatives with desired attributes can be evaluated using the procedure described below.
# Compounds were selected by virtual screening for development based on computational modeling, docking, and in silico screening. […] (See Sangadala et al. (2007) Proteins 68: 690-701 and FIG. 2). The BMP-potentiating activities of compounds may be evaluated by monitoring several markers of the osteoblastic phenotype corresponding to various time points during phenotype differentiation of C2C12 cells towards terminally differentiated osteoblasts.
# [1] = test system: alkaline phosphatase activity; test: BMP-2 induced alkaline phosphatase (ALP) enzyme activity assay in C2C12 cells; format: cell-based, Mouse
# Experimental: (§1) Mouse C2C12 cells and Dulbecco's modified Eagle's medium (DMEM) were purchased from ATCC (Manassas, VA). The non-heat inactivated fetal bovine serum (FBS) was purchased from HyClone Laboratories, Inc. (Logan, UT). The C2C12 cells at passages 5 to 10 were subcultured in T-75 cm^2 flasks in DMEM supplemented with 10% FBS at 37° C. in 5% CO2 with humidification. When the flasks reached 80% confluence, the cells were trypsinized and seeded in triplicate at 200,000 cells/well in a 6-well plate for quantitative real-time RT-PCR and alkaline phosphatase (ALP) assays or at 50,000 cells/well in a 12-well plate for the dual-luciferase reporter assay.
# The C2C12 cells were plated at 200,000 cells/well in 6-well plates and grown overnight in DMEM containing 10% FBS. On day 2, the culture medium was replaced with DMEM containing 2% FBS and the cells were treated with various concentrations of the Smurf1-interacting compound for 24 hours. On day 3, the medium was replaced with fresh DMEM containing 2% FBS and the cells were treated with 50 ng/ml of BMP-2 with or without compound for 72 hours. The cells were washed with phosphate-buffered saline (PBS) and lysed by addition of lysis buffer (10 mM Tris-HCl pH 8.0, 1 mM MgCl2 and 0.5% Triton X-100). The cell lysates were centrifuged for 5 minutes at 13,000×g. The supernatant was removed and the aliquots were assayed for ALP activity and protein amount. The ALP activity was measured in triplicate using an ALP assay kit (Sigma-Aldrich, St. Louis, MO) in microtiter plates. The protein amount was determined with Bio-Rad™ protein assay reagent (Bio-Rad, Hercules, CA) using bovine serum albumin (BSA) as a standard. The ALP activity (nmoles of p-nitrophenol per ml) was normalized to the protein amount (nmoles of p-nitrophenol per μg).
# (§2) The EC50 values were calculated by determining the concentration by which 50% of maximum activity was reached using the sigmoidal fit equation. The 50% effective concentrations were determined with the standard curve analysis of SigmaPlot™ 8.02. […]
# C2C12 cells = test: cell lifting / cell number observation in C2C12 reporter assay; format: cell-based, Mouse; conditions: reduced number of cells at end of experiment
# Experimental: Compounds were tested experimentally for their ability to potentiate BMP-2 activity in our luciferase reporter assay using C2C12 cells (FIGS. 5A and 5B).
# osteocalcin mRNA = test: BMP-2 induced osteocalcin mRNA level, quantitative real-time RT-PCR in C2C12 cells; format: cell-based, Mouse; conditions: for increase in osteocalcin mRNA by BMP-2 alone: compared to no treatment control
# Experimental: as §1
# (§3) The C2C12 cells were plated at a density of 200,000 cells/well in 6-well plates and grown overnight in DMEM containing 10% FBS. On day 2, the culture medium was replaced with DMEM containing 2% FBS and the cells were treated with various concentrations of Smurf1-interacting compound (diluted from 10 mg/ml stock solutions prepared in DMSO) for 24 hours. In control cultures, a DMSO solvent concentration of 0.01% (v/v) was applied. On day 3, medium was replaced with fresh DMEM containing 2% FBS and the cells were treated with BMP-2 for 24 hours.
# (§4) Total RNA was harvested using the RNeasy Mini Kit according to the manufacturer's instructions (Qiagen, Valencia, CA). The harvested RNA was digested with RNase-free DNase I (Qiagen, Valencia, CA) to remove DNA contamination. The concentration of the isolated RNA was determined by measuring the absorbance at 260 nm wave length with a spectrophotometer (Model DU 640, Beckman Coulter, Inc. Brea, CA). The ratio of A260/A280 was between 1.6 and 1.8. Reverse transcription was carried out to synthesize cDNA in a 100 μl volume with 2 μg of total RNA, 10×RT buffer, 5.5 mM MgCl2, 2 mM dNTP mixture, 0.125 μM oligo d(T), 0.125 μM random primer, 40 Units of RNase inhibitor, and 125 Units of MultiScribe™ (Applied Biosystems, Foster City, CA) for 10 minutes at 25° C., 30 minutes at 48° C., and 5 minutes at 95° C.
# Quantitative real-time RT-PCR was performed to determine the mRNA expression level of ALP and osteocalcin. The sequences of the primers were as follows: ALP (forward, 5′-TCAGGGCAATGAGGTCACATC-3′; (SEQ ID NO: 6), reverse, 5′-CAC AAT GCC CAC GGA CTT C-3′) (SEQ ID NO: 7), osteocalcin (forward, 5′-CGGCCCTGAGTCTGACAAAG-3′; (SEQ ID NO: 8) reverse, 5′-CTCGTCACAAGCAGGGTCAA-3′ (SEQ ID NO: 9)). Twenty-five microliters of reaction volume included 5 μl of cDNA, 0.5 μl of 10 μM of each primer and 12.5 μl of 2×SYBR green master mix (Applied Biosystems). Real-time PCR was performed with the following three-step protocol: step 1, 50° C. for 2 minutes; step 2, 95° C. for 10 minutes; step 3, 40 cycles of 95° C. for 15 seconds and 62° C. for 1 minute using the 7500 real-time PCR System (Applied Biosystems, Foster City, CA). To confirm the amplification specificity, the PCR products were subjected to a dissociation curve analysis. The threshold cycles (Ct) of each reaction were normalized to those obtained for 18S mRNA using the −ΔΔCt method (Applied Biosystems). All PCR reactions were performed in triplicate.
# as §2
# [2] = test system: alkaline phosphatase mRNA; test: BMP-2 induced alkaline phosphatase mRNA level, quantitative real-time RT-PCR in C2C12 cells; format: cell-based, Mouse; conditions: for increase in alkaline phosphatase mRNA by BMP-2 alone: compared to no treatment control
# Experimental: as §1, §3, §4
# Quantitative real-time RT-PCR was performed to determine the mRNA expression level of ALP and osteocalcin. The sequences of the primers were as follows: ALP (forward, 5′-TCAGGGCAATGAGGTCACATC-3′; (SEQ ID NO: 6), reverse, 5′-CAC AAT GCC CAC GGA CTT C-3′) (SEQ ID NO: 7), osteocalcin (forward, 5′-CGGCCCTGAGTCTGACAAAG-3′; (SEQ ID NO: 8) reverse, 5′-CTCGTCACAAGCAGGGTCAA-3′ (SEQ ID NO: 9)). Twenty-five microliters of reaction volume included 5 μl of cDNA, 0.5 μl of 10 μM of each primer and 12.5 μl of 2×SYBR green master mix (Applied Biosystems). […]
# [3] = test system: BMP-specific Smad1-driven 9×GCCG reporter; test: BMP-2 induced Smad1-driven dual-luciferase reporter assay in C2C12 cells; format: cell-based, Mouse; conditions: BMP-2 1 ng/ml
# Description: A cell-based method was optimized to monitor BMP-2 induced responses. […] One can monitor transcriptional activity driven by activated Smad1 in C2C12 cells in a cell-based assay utilizing a Smad1-specific luciferase reporter plasmid containing a multimerized -GCCG- motif (9 copies). […] A concentration range of BMP-2 required for activating the reporter assay was established.
# A BMP-specific Smad1-driven 9×GCCG (a consensus binding sequence for Smad1) reporter plasmid was used. The C2C12 cells were trypsinized and seeded in triplicate wells at 50,000 cells/well in 12-well plates on day 1. On day 2, the cells were cotransfected with the 9×GCCG-reporter construct and the renilla-luciferase control vector using SuperFect (Qiagen, Valencia, CA) for 24 hrs. […] On day 5, the luciferase activities were measured in 20 μl of cell-lysate using the dual-luciferase assay system (Promega, Madison, WI) with a luminometer (LumiCount™; Packard Bioscience, Meriden, CT) following the manufacturer's instructions. The luciferase activity was expressed as relative units of luciferase (RUL; a ratio of firefly luciferase to renilla luciferase activity). […]
# rat model = test: in vivo bone-formation in rat model (ectopic bone induction); conditions: without any BMP-2
Molecule,potentiation of BMP-2 induced transdifferentiation of C2C12 myoblasts into the osteoblastic phenotype (C2C12 myoblasts),"efficacy relative to other derivatives in cell-based alkaline phosphatase assay ([1]; screening, FIG. 9)",concentration causing lifting of some cells from the plates (C2C12 cells),"effective dose of compound among multiple assays (C2C12 myoblasts; C2C12 cells, BMP-2 induced markers) [µg/mL]",effect on BMP-2-induced response (C2C12 myoblasts; dose of 0.1 μg/ml),"EC50 ([1]; Mus musculus, C2C12, BMP-2 50 ng/ml, estimated) [µM]","maximal increase in BMP-2 induced ALP activity ([1]; compound 1.0 μg/ml, BMP-2 50 ng/ml, compared to BMP-2 alone, P<0.001) [fold]","EC50 (osteocalcin mRNA; Mus musculus, C2C12, BMP-2 20 ng/ml, estimated, read-out: EC50, expression of osteocalcin mRNA) [µM]",effect of compound alone on osteocalcin mRNA (osteocalcin mRNA; absence of BMP-2),"maximal increase in BMP-induced osteocalcin mRNA level (osteocalcin mRNA; compound 1.0 μg/ml, BMP-2 20 ng/ml, compared to BMP-2 alone, P<0.05) [fold]","maximal increase in BMP-induced alkaline phosphatase mRNA level ([2]; BMP-2 20 ng/ml, compared to BMP-2 alone, P<0.05) [fold]","EC50 ([2]; Mus musculus, C2C12, BMP-2 20 ng/ml, estimated, read-out: EC50, expression of alkaline phosphatase mRNA) [µM]","EC50 ([3]; Mus musculus, C2C12, calculated from the Hill plot, read-out: EC50, potentiation of BMP-2 luciferase reporter activity) [µM]","optimum enhancement of BMP-2 induced luciferase activity ([3]; compound 1.0 μg/ml, compared to BMP-2 alone, P<0.05) [fold]",bone-formation in rat model (rat model),increase in osteocalcin mRNA by BMP-2 alone (osteocalcin mRNA; absence of DMSO) [fold],increase in osteocalcin mRNA by BMP-2 alone (osteocalcin mRNA; presence of DMSO (0.01%)) [fold],increase in alkaline phosphatase mRNA by BMP-2 alone ([2]; absence of DMSO) [fold],increase in alkaline phosphatase mRNA by BMP-2 alone ([2]; presence of DMSO (0.01%)) [fold]
"CC1(C)N=C(N)N=C(N)N1c1ccc(Cl)cc1 [Compound 12X, 1-(4-chlorophenyl)-4,6-diamino-1,2-dihydro-2,2-dimethyl-1,3,5-triazine]",potentiate the effects of BMP-2,more efficacious,,,,,,,,,,,,,,,,,
"C=Cc1nc(N)nc(N)n1 [Compound 12, 2,4-diamino-6-vinyl-1,3,5-triazine]",potentiate the effects of BMP-2,,higher than 1.5 ug/ml,0.275 to 1.0,elevated the BMP-2-induced response significantly,3.7,4.8,1.5 to 5.3,no significant effect,4.4,3.5,1.5 to 5.3,2.6,3.8,capable of inducing bone-formation,,,,
"BMP-2: bone morphogenetic protein, growth factor known to induce bone and cartilage formation and play a role in osteoblast differentiation (protein, listed as Homo sapiens) MVAGTRCLLALLLPQVLLGGAAGLVPELGRRKFAAASSGRPSSQPSDEVLSEFELRLLSMFGLKQRPTPSRDAVVPPYMLDLYRRHSGQPGSPAPDHRLERAASRANTVRSFHHEESLEELPETSGKTTRRFFFNLSSIPTEEFITSAELQVFREQMQDALGNNSSFHHRINIYEIIKPATANSKFPVTRLLDTRLVNQNASRWESFDVTPAVMRWTAQGHANHGFVVEVAHLEEKQGVSKRHVRISRSLHQDEHSWSQIRPLLVTFGHDGKGHPLHKREKRQAKHKQRKRLKSSCKRHPLYVDFSDVGWNDWIVAPPGYHAFYCHGECPFPLADHLNSTNHAIVQTLVNSVNSKIPKACCVPTELSAISMLYLDENEKVVLKNYQDMVVEGCGCR",,,,,,,,,,,,,,,,9,7,43,51
